What all share (type): cell-based, mouse
Test [1] concerns primary cortical neurons. The experiment in a line: Hypoxia (1% O2) induced neuronal death. Conditions: 1% O2, 1 week pretreatment. The source says:
(§1) While glutamate toxicity is a widely used and clinically relevant assay, there are other factors that contribute to neuronal death in vivo such as lack of oxygen which occurs after stroke or protein aggregates which are observed in many neurodegenerative disorders. To understand if the observed protective effect is specific to glutamate toxicity, neurons were exposed to either hypoxic (1% O2) environments or Aβ1-43 oligomers (FIGS. 10E and 10F).
(§2) IBET treatment protects neurons from neurotoxin-induced cell death (FIGS. 22C-22E). Dot plots show the percentage of cells that are propidium iodide negative after different neurotoxic insults when pre-treated with either control or iBET for 1 week. 6 hours and 24 hours after 1 mM glutamate exposure are shown in FIG. 22C; 18 hours, 24 hours, and 48 hours of hypoxia (1% O2) are shown in FIG. 22D; and 48 hours and 72 hours of Aβ1-43 oligomer exposure (10 μM) are shown in FIG. 22E. Two-way repeated measures ANOVA with multiple comparisons, n=3 per group, ***p<0.001. Experiments were repeated a minimum of three times.

For test [2], the system named is primary cortical neurons. The experiment in a line: Aβ1-43 oligomer induced neuronal death. The following applies: Aβ1-43 oligomers, 1 week pretreatment.
Excerpt: as §1, §2

Test [3] concerns primary cortical neurons. The experiment in a line: Gene expression in primary cortical neurons. From the text:
Primary Cortical Neuron Culture. Embryonic day 18 (E18) timed-pregnant female mice were anesthetized with CO2 and sacrificed by cervical dislocation. In a dissection hood, 24-26 embryos per experiment were collected through an incision of the mother's abdomen, taken out of the amniotic sacs and decapitated in ice cold Hank's Balanced Salt Solution (HBSS). Using fine scissors and forceps, brains were rapidly dissected and the cortex cleared from meninges and isolated under a dissection microscope. Cortices were collected in ice cold HBSS and kept on ice until all embryos had been dissected. In a tissue culture hood, HBSS was removed and the cortex tissue digested by 0.25% Trypsin-EDTA for 12 minutes at 37° C., followed by DNase1 treatment for 10 minutes at 37° C. The tissue was dissociated by serial trituration with a 25 ml serological pipette, followed by trituration with 10 ml and 5 ml serological pipettes. Cell suspension was washed once with DMEM medium, supplemented with 10% FBS and 1% penicillin/streptomycin and passed through a […] cell strainer before counted on a hemocytometer. Single cells were seeded on poly-D-lysine (0.1 mg ml-1) coated wells at a density of 1×10^6 cells per well on a 12-well plate. Cells were grown in Neurobasal medium, complemented with B27 supplement, N2 supplement, and 0.5 mM L-glutamine and maintained at 37° C. in 5% CO2 for 1 week. […] Cultures were washed with phosphate-buffered saline (PBS) on ice and processed for RNA isolation using TRIzol/Chloroform extraction.
RNA Isolation. For in vitro gene expression analysis, neuronal culture plates were washed once with PBS, and TRIzol was added directly to cultures to isolate RNA (n=3 per group). For in vivo gene expression analysis, mice were anesthetized with CO2 and decapitated. The striata from two control and acute or chronic I-BET treated mice were rapidly dissected on ice and frozen in liquid nitrogen. RNA extraction from frozen samples was performed using TRIzol/Chloroform according to manufacturer's instructions (Invitrogen Corporation, Carlsbad, CA). RNA was precipitated overnight at −80° C. in isopropanol with 0.15 M sodium acetate, washed twice with 70% ethanol, air-dried, and resuspended in RNase-free water. RNA samples were purified using Rneasy Micro columns (Qiagen) with on-column DNAse treatment as specified by manufacturer. […]
RNA Sequencing. […] Duplexed libraries were sequenced on HiSeq 2000, typically yielding on average 60 million, 100 bp long single-end reads per sample (Illumina). […] After filtering out adaptor and low quality reads, reads were mapped using TopHat (version 2.0.8) to the mm9 mouse genome. […] Differentially expressed autosomal genes between control and acute I-BET858 or chronic I-BET858 libraries were determined using a p-value <0.05 and fold change of >2. […]

In the case of `CC(=O)N1c2ccc(-c3ccc(CN4CCCCC4)cc3)cc2[C@H](Nc2ccccc2)CC1C` (stereo in doubt) [IBET858], the “loss of neurons due to hypoxia” value in the test on primary cortical neurons [1] was “significantly prevents loss of neurons”. Moreover, the “loss of neurons due to toxic Aβ oligomers” value in the test on primary cortical neurons [2] is recorded as “significantly prevents loss of neurons”. In addition, in the test with primary cortical neurons [3] (1 week IBET858), the “cellular composition of the culture and cell identity gene expression” value was “does not change”. Besides, in the test with primary cortical neurons [3] (chronic BET inhibition), the “autophagy, proteolysis and pro-survival genes” value was “up-regulation”. Besides, the “metabolic genes (amino acid synthesis and import, glycolysis/TCA cycle, oxidative phosphorylation, fatty acid metabolism)” value in the test with primary cortical neurons [3] (chronic BET inhibition, day 14) is “down-regulated”. In addition, the “genes decreased by rapamycin that were also decreased by IBET858” value with primary cortical neurons [3] (one week treatment, 93/165) came out at 56%.

For the origin of these results see patent US12691124B2, “Methods of controlling and improving brain health” (ICAHN SCHOOL OF MEDICINE AT MOUNT SINAI, priority 2019, dated 2026).
